Results taken from article PMC3566764, “Thioester derivatives of the natural product psammaplin A as potent histone deacetylase inhibitors” (Beilstein Journal of Organic Chemistry, 2013).
Where two headings read alike, the source gives them in different places.

Columns and labels:
[1] = tested on: WI38 (normal human lung fibroblast); experiment: Cytotoxicity against WI38 cell line; type: cell-based; settings: for IC50: Homo sapiens, WI-38, WI38 cells
Experimental: (§1) Thioesters 7–9 were assayed against A549, MCF7 and WI38 cell lines, in addition to recombinant human rHDAC1 (class I) and recombinant human HDAC6 (rHDAC6, class II) as previously reported. Psammaplin A (3), prereduced psammaplin A thiol (4), and SAHA (1) were included as control compounds. IC50^6/1 is defined by the ratio IC50^HDAC6/IC50^HDAC1 and was used as an indicator of isoform selectivity in vitro.

[2] = tested on: MCF7 (human breast carcinoma); experiment: Cytotoxicity against MCF7 cell line; type: cell-based; settings: MCF7 cells
Experimental: as §1

[3] = tested on: A549 (human lung carcinoma); experiment: Cytotoxicity against A549 cell line; type: cell-based; settings: for IC50: Homo sapiens, A549 cells
Experimental: as §1

[4] = molecular target: T1, recombinant human HDAC6 (rHDAC6) (Homo sapiens, UniProt Q9UBN7); experiment: rHDAC6 inhibition, coupled Boc-Lys(Ac)-AMC/trypsin fluorescence assay; type: biochemical; settings: purified recombinant human HDAC6
T1 construct: purchased BPS Bioscience (US)
T1 sequence (Q9UBN7 1-1215): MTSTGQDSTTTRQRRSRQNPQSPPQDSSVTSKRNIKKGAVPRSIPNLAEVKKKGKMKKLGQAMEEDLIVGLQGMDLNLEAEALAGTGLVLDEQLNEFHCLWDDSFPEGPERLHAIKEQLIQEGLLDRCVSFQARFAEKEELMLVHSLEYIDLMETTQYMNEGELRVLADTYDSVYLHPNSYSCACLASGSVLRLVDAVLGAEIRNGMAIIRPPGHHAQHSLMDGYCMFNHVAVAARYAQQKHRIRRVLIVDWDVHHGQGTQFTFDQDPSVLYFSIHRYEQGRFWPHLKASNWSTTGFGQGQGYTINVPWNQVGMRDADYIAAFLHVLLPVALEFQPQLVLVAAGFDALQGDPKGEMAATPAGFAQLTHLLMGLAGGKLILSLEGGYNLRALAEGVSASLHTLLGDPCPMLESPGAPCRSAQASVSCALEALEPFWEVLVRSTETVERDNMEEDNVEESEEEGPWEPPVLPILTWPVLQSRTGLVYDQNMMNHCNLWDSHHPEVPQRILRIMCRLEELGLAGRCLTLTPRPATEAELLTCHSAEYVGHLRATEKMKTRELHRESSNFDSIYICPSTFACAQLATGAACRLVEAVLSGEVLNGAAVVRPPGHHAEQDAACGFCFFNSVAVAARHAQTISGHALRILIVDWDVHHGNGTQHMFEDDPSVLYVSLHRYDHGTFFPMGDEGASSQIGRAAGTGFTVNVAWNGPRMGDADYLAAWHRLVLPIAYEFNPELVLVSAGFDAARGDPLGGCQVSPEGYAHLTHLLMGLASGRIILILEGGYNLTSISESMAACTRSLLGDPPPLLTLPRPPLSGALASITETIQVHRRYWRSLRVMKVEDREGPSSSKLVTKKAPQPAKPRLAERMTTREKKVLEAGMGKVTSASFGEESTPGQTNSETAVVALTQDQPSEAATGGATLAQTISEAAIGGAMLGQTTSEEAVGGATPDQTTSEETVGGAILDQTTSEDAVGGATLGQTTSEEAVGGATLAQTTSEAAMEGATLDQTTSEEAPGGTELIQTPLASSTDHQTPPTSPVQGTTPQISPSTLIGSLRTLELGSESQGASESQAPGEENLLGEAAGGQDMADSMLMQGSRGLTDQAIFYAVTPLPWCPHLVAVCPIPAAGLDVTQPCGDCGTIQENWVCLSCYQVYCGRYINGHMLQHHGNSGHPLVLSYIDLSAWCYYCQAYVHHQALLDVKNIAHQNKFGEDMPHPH
Experimental: (§2) HDAC assays were performed as previously reported. The recombinant human histone deacetylases rHDAC1 and rHDAC6 were obtained from BPS Bioscience (US).
(§3) All reactions were performed in black half area 96-well microplates (Greiner bio-one, Germany) according to the general procedure described by Wegener et al. with some minor modifications. […] The buffer components were purchased from Merck (Germany), Roth (Germany) and Sigma-Aldrich.
(§4) The enzyme reaction was initiated by the addition of Boc-Lys(Ac)-AMC substrate. The reaction mixture was incubated at 30 °C in the dark and stopped after 60 min by the addition of a mixture of 70 µM trypsin and 200 nM SAHA. The fluorescence of AMC served as an indirect measure of HDAC enzyme activity. The kinetics of AMC release was measured on a PolarStar fluorescence plate reader (BMG) with an excitation wavelength of 340 nm and an emission wavelength of 460 nm. Complete cleavage of deacetylated Boc-Lys-AMC by trypsin was achieved after about 10–15 min. The fluorescence intensity of the plateau was averaged over at least 5 min and normalized with respect to the percentage of enzyme activity. Finally, the normalized fluorescence intensities were plotted versus the concentration of test compounds and fitted to a four-parameter logistic model to calculate the IC50 values.

rHDAC1 [5] = molecular target: T2, rHDAC1 (Homo sapiens, UniProt Q13547); experiment: rHDAC1 inhibition, coupled Boc-Lys(Ac)-AMC/trypsin fluorescence assay; type: biochemical; settings: for IC50^6/1 (ratio IC50 HDAC6/IC50 HDAC1): isoform selectivity in vitro; for IC50: purified recombinant human HDAC1
T2 construct: purchased BPS Bioscience (US)
T2 sequence (Q13547 whole entry, canonical isoform): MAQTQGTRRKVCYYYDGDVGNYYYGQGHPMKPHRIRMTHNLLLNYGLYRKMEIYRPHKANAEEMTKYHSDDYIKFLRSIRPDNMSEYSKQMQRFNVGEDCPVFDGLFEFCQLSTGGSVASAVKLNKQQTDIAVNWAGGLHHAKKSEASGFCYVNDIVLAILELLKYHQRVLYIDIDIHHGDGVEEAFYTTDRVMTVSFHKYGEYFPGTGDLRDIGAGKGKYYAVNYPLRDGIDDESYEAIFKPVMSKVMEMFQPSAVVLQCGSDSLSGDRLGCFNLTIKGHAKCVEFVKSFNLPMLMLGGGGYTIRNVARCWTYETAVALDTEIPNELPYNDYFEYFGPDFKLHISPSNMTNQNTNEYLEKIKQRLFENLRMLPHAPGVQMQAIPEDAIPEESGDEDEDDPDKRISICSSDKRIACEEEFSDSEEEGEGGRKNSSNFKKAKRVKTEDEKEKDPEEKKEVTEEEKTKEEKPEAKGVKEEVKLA
Experimental: as §2, §3, §4

rHDAC1 [6] = molecular target: T2, rHDAC1; experiment: rHDAC1 inhibition as a function of initial incubation time; type: biochemical; settings: thioester at IC50 concentration, incubation 1–60 minutes
Experimental: An alternative hypothesis for the high potency of the thioester inhibitors is that the HDAC enzyme cleaves the acetyl group directly, utilizing its intrinsic deacetylase activity. Inhibition of rHDAC1 was measured (at the IC50 concentration of thioester) as a function of the initial incubation time (1–60 minutes) of rHDAC1 with thioesters 7 and 9 (Figure 2). […] Finally, we assessed whether the use of thioester inhibitors could influence the assay readout, when using our coupled HDAC assay. Trypsin-dependant generation of the fluorescence intensity (2nd step of our coupled assay) was discounted as a source of false-positive activity, since trypsin was used in a large excess (430 μM) compared to the thioesters (low micromolar to nanomolar). Direct compound inhibition of trypsin would therefore not be significant in the overall readout on stoichiometry grounds.
Figure 2 rHDAC1 was incubated with a predetermined IC50 concentration of 7 (left) and 9 (right) for 1–60 minutes, and the remaining rHDAC1 activity (Y-axis, %) was recorded and plotted as a function of the incubation time (X-axis, minutes).
A serial dilution of test compounds was pre-incubated with 7.4 nM rHDAC1 or 2.8 nM rHDAC6, at 21 ± 1 °C in the dark for different periods of time as indicated. […] The fluorescence of AMC served as an indirect measure of HDAC enzyme activity. […]

[7] = tested on: A549 (human lung carcinoma); parameters: method as in PMID 22280363; settings: in brackets, cited from earlier work
[8] = tested on: MCF7 (human breast carcinoma); parameters: method as in PMID 22280363; settings: in brackets, cited from earlier work
[9] = tested on: WI38 (normal human lung fibroblast); parameters: method as in PMID 22280363; settings: in brackets, cited from earlier work
[10] = molecular target: T1, recombinant human HDAC6 (rHDAC6); parameters: method as in PMID 22280363; settings: in brackets, cited from earlier work
rHDAC1 [11] = molecular target: T2, rHDAC1; parameters: method as in PMID 22280363; settings: in brackets, cited from earlier work
[12] = second value: corresponding thiol
[13] = first value: corresponding disulfide

CO/N=C(\Cc1ccc(OC)c(Br)c1)C(=O)NCCSC(C)=O [Compound 7, (E)-(S)-2-(3-(3-Bromo-4-methoxyphenyl)-2-(methoxyimino)propanamido)ethyl ethanethioate]
IC50 [1]: 17 µM
IC50 [2]: 12 µM
IC50 [3]: 44 µM
IC50 [4]: > 50000 nM
IC50^6/1 (ratio IC50 HDAC6/IC50 HDAC1) (rHDAC1 [5]): > 417
IC50 (rHDAC1 [5]): 120 nM
times less potent than the corresponding free thiol analogue against rHDAC1 (rHDAC1 [5]; thioester vs free thiol): 8 times
variation of rHDAC1 inhibition with initial incubation time (rHDAC1 [6]): No variation of enzymatic inhibition

O=C(CCCCCCC(=O)Nc1ccccc1)NO [SAHA (1), suberoylanilide hydroxamic acid]
IC50^6/1 (ratio IC50 HDAC6/IC50 HDAC1) (rHDAC1 [5]): 7

COc1ccc(CC(=NO)C(=O)NCCS)cc1Br [thiol of 8]
IC50 [7, 12]: 0.16 µM
IC50 [8, 12]: 0.61 µM
IC50 [9, 12]: 1.1 µM
IC50 [10, 12]: 3200 nM
IC50 (rHDAC1 [11]; [12]): 2 nM
IC50^6/1 (ratio IC50 HDAC6/IC50 HDAC1) (rHDAC1 [11]; [12]): 1772

O=C(NCCSSCCNC(=O)/C(Cc1ccc(O)c(Br)c1)=N/O)/C(Cc1ccc(O)c(Br)c1)=N/O [PSA (3), psammaplin A]
IC50 [1]: 3.4 µM
IC50 [2]: 1.3 µM
IC50 [3]: 7.5 µM
IC50 [4]: 2800 nM
IC50^6/1 (ratio IC50 HDAC6/IC50 HDAC1) (rHDAC1 [5]): 62
IC50 (rHDAC1 [5]): 45 nM

CON=C(Cc1ccc(OC)c(Br)c1)C(=O)NCCS [thiol of 7]
IC50 [7, 12]: 5.1 µM
IC50 [8, 12]: 12 µM
IC50 [9, 12]: 10 µM
IC50 [10, 12]: 2700 nM
IC50 (rHDAC1 [11]; [12]): 15 nM
IC50^6/1 (ratio IC50 HDAC6/IC50 HDAC1) (rHDAC1 [11]; [12]): 180

COc1ccc(CC(=O)C(=O)NCCS)cc1Br [thiol of 9]
IC50 [7, 12]: 11 µM
IC50 [8, 12]: 3.4 µM
IC50 [9, 12]: 14 µM
IC50 [10, 12]: 250 nM
IC50 (rHDAC1 [11]; [12]): 1100 nM
IC50^6/1 (ratio IC50 HDAC6/IC50 HDAC1) (rHDAC1 [11]; [12]): 0.22

O=C(NCCS)/C(Cc1ccc(O)c(Br)c1)=N/O [PSA-SH (4)]
IC50 [1]: 3.4 µM
IC50 [2]: 2.4 µM
IC50 [3]: 2.5 µM
IC50 [4]: 360 nM
IC50^6/1 (ratio IC50 HDAC6/IC50 HDAC1) (rHDAC1 [5]): 360
IC50 (rHDAC1 [5]): 1 nM

COc1ccc(CC(=O)C(=O)NCCSC(C)=O)cc1Br [Compound 9, (S)-2-(3-(3-Bromo-4-methoxyphenyl)-2-oxopropanamido)ethyl ethanethioate]
activity against WI38 cells at the highest concentration tested ([1]; 50 μM): inactive
IC50 [1]: > 50 µM
IC50 [2]: 21 µM
activity against A549 cells at the highest concentration tested ([3]; 50 μM): inactive
IC50 [3]: > 50 µM
IC50 [4]: 9500 nM
IC50^6/1 (ratio IC50 HDAC6/IC50 HDAC1) (rHDAC1 [5]): > 20
IC50 (rHDAC1 [5]): 480 nM
variation of rHDAC1 inhibition with initial incubation time (rHDAC1 [6]): No variation of enzymatic inhibition

CON=C(Cc1ccc(OC)c(Br)c1)C(=O)NCCSSCCNC(=O)C(Cc1ccc(OC)c(Br)c1)=NOC [disulfide of 7]
IC50 [7, 13]: 46 µM
IC50 [8, 13]: 13 µM
IC50 [10, 13]: > 50000 nM
IC50 (rHDAC1 [11]; [13]): 220 nM
IC50^6/1 (ratio IC50 HDAC6/IC50 HDAC1) (rHDAC1 [11]; [13]): > 230

COc1ccc(CC(=NO)C(=O)NCCSSCCNC(=O)C(Cc2ccc(OC)c(Br)c2)=NO)cc1Br [disulfide of 8]
IC50 [7, 13]: 4.1 µM
IC50 [8, 13]: 0.63 µM
IC50 [9, 13]: 2.2 µM
IC50 [10, 13]: 2000 nM
IC50 (rHDAC1 [11]; [13]): 43 nM
IC50^6/1 (ratio IC50 HDAC6/IC50 HDAC1) (rHDAC1 [11]; [13]): 46

COc1ccc(CC(=O)C(=O)NCCSSCCNC(=O)C(=O)Cc2ccc(OC)c(Br)c2)cc1Br [disulfide of 9]
IC50 [7, 13]: 10 µM
IC50 [8, 13]: 3.9 µM
IC50 [9, 13]: 4.1 µM
IC50 [10, 13]: 8000 nM
IC50 (rHDAC1 [11]; [13]): 9000 nM
IC50^6/1 (ratio IC50 HDAC6/IC50 HDAC1) (rHDAC1 [11]; [13]): 0.9
